Data reported in patent US10231954B2, “Neurodegenerative therapies” (LYTIX BIOPHARMA AS, priority 2014, dated 2019).
Where two headings read alike, the source gives them in different places.

Experiments:
Type in all cases: biochemical
ERK2 = ERK2 (Homo sapiens, UniProt P28482); assay: Kinase profiling ERK2; conditions: 100 micromolar inhibitor concentration; 100 is no change
Text: (§1) Any value less that 25 is considered to be highly significant inhibition.

MKK2 = MKK2 (Homo sapiens, UniProt P36507); assay: Kinase profiling MKK2; conditions: 100 micromolar inhibitor concentration; 100 is no change
Text: as §1

ROCK 2 = ROCK 2 (Homo sapiens, UniProt O75116); assay: Kinase profiling ROCK 2; conditions: for remaining activity at 100 µM: read-out: residual kinase activity, ROCK 2
Text: as §1

MKK1 = MKK1 (Homo sapiens, UniProt Q02750); assay: Kinase profiling MKK1; conditions: for remaining activity at 100 µM: read-out: residual kinase activity, MKK1
Text: as §1

PKBa = PKBa (Homo sapiens, UniProt P31749); assay: Kinase profiling PKBa; conditions: for residual kinase activity, PKBa: 100 micromolar inhibitor concentration, 100 is no change; for remaining activity at 100 µM: read-out: residual kinase activity, PKBa
Text: as §1

PKA = PKA (Homo sapiens, UniProt P17612); assay: Kinase profiling PKA; conditions: for remaining activity at 100 µM: read-out: residual kinase activity, PKA
Text: as §1

RSK2 = RSK2 (Homo sapiens, UniProt P51812); assay: Kinase profiling RSK2; conditions: 100 micromolar inhibitor concentration; 100 is no change
Text: as §1

MKK6 = target: T1, MKK6 (Homo sapiens, UniProt P52564); assay: Kinase profiling MKK6; conditions: 100 micromolar inhibitor concentration; 100 is no change
T1 sequence (P52564 1-334): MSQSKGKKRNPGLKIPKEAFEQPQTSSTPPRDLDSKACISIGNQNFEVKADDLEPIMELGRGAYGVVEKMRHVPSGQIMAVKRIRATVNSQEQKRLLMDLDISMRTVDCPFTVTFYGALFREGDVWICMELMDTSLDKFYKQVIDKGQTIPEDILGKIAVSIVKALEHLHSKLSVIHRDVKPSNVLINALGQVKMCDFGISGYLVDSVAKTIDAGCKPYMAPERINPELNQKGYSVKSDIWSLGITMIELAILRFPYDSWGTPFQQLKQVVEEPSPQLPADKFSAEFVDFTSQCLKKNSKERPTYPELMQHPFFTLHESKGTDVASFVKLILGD
Text: as §1

PKCz = target: T2, PKCz (Homo sapiens, UniProt Q05513); assay: Kinase profiling PKCz; conditions: 100 micromolar inhibitor concentration; 100 is no change
T2 sequence (Q05513 1-592): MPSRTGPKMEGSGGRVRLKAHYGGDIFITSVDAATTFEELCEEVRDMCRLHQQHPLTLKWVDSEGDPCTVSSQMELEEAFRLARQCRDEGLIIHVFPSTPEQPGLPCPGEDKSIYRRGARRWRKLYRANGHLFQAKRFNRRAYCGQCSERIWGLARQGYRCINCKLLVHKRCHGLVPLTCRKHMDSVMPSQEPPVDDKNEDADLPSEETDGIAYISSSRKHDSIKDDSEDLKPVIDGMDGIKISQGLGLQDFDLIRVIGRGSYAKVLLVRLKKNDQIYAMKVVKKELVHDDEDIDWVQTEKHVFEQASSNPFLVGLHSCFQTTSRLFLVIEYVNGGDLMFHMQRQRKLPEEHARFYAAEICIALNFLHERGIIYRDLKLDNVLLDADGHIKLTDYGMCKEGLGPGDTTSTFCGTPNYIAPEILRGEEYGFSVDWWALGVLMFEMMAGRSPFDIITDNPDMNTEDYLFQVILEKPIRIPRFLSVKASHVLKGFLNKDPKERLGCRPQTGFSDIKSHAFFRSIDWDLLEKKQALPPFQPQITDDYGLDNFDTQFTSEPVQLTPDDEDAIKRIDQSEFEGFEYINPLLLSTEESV
Text: as §1

JNK2 = JNK2 (Homo sapiens, UniProt P45984); assay: Kinase profiling JNK2; conditions: 100 micromolar inhibitor concentration; 100 is no change
Text: as §1

TTK = target: T3, TTK (Homo sapiens, UniProt P33981); assay: Kinase profiling TTK; conditions: read-out: residual kinase activity, TTK
T3 sequence (P33981 1-857): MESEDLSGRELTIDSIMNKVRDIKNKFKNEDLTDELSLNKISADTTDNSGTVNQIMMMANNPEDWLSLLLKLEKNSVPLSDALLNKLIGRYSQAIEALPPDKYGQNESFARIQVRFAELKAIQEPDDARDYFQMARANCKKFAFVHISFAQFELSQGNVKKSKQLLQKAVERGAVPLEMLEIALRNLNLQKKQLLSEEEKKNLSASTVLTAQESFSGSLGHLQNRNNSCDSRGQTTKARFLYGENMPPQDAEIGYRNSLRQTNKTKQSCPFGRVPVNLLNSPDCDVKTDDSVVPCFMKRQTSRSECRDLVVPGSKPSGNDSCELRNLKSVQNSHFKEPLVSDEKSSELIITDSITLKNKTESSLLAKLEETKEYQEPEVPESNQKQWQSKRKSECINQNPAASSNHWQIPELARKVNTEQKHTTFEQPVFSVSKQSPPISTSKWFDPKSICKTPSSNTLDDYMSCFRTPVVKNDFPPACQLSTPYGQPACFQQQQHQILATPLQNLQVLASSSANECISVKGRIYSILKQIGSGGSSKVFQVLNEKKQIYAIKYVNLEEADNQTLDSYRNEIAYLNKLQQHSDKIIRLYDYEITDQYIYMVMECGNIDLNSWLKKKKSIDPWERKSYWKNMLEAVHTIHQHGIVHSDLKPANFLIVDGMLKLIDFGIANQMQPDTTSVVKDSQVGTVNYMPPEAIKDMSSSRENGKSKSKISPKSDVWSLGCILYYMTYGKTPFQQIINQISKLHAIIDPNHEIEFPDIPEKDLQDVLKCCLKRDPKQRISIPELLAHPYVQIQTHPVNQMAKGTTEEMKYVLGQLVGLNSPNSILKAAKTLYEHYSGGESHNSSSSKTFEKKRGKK
Text: as §1

EPH-A2 = EPH-A2 (Homo sapiens, UniProt P29317); assay: Kinase profiling EPH-A2; conditions: read-out: residual kinase activity, EPH-A2
Text: as §1

NEK6 = NEK6 (Homo sapiens, UniProt Q9HC98); assay: Kinase profiling NEK6; conditions: read-out: residual kinase activity, NEK6
Text: as §1

HIPK2 = HIPK2 (Homo sapiens, UniProt Q9H2X6); assay: Kinase profiling HIPK2; conditions: read-out: residual kinase activity, HIPK2
Text: as §1

CAMK1 = CAMK1 (Homo sapiens, UniProt Q14012); assay: Kinase profiling CAMK1; conditions: read-out: residual kinase activity, CAMK1
Text: as §1

JAK2 = JAK2 (Homo sapiens, UniProt O60674); assay: Kinase profiling JAK2; conditions: read-out: residual kinase activity, JAK2
Text: as §1

EF2K = EF2K (Homo sapiens, UniProt O00418); assay: Kinase profiling EF2K; conditions: read-out: residual kinase activity, EF2K
Text: as §1

SRPK1 = SRPK1 (Homo sapiens, UniProt Q96SB4); assay: Kinase profiling SRPK1; conditions: read-out: residual kinase activity, SRPK1
Text: as §1

Lck = Lck (Homo sapiens, UniProt P06239); assay: Kinase profiling Lck; conditions: read-out: residual kinase activity, Lck
Text: as §1

Src = Src (Homo sapiens, UniProt P12931); assay: Kinase profiling Src; conditions: read-out: residual kinase activity, Src
Text: as §1

[1] = 100 micromolar inhibitor concentration, 100 is no change

JNK2, sequence (P45984 whole entry, species assumed): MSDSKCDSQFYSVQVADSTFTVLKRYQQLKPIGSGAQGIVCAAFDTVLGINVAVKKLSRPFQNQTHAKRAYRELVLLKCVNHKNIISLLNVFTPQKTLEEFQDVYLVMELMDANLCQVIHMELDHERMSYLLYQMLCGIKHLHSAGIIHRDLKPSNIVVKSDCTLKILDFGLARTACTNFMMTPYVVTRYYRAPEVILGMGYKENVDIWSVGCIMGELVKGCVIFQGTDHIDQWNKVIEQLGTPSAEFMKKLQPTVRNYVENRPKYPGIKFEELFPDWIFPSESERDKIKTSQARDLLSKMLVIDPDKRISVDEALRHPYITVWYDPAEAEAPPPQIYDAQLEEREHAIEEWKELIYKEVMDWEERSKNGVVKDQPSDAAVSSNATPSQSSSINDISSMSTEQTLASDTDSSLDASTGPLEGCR
RSK2, sequence (P51812 whole entry, species assumed): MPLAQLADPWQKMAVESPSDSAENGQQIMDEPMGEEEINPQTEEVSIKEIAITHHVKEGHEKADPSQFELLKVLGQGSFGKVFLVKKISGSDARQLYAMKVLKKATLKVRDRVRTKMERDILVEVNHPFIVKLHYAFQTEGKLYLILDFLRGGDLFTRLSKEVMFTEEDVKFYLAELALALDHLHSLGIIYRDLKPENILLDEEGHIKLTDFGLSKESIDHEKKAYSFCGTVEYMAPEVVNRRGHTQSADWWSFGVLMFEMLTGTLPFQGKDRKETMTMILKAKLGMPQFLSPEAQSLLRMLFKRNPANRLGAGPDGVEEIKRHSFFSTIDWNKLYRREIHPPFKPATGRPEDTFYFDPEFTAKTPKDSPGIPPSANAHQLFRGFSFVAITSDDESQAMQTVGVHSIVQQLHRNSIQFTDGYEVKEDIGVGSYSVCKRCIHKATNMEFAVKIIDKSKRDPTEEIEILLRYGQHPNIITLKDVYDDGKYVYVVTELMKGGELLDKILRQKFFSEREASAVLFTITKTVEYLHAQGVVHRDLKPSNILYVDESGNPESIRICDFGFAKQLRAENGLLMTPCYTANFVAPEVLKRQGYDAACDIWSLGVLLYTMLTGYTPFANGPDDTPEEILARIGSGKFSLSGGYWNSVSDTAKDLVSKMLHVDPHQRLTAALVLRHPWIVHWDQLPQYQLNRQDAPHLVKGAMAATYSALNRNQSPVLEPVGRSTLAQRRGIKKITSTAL
ERK2, sequence (P28482 whole entry, species assumed): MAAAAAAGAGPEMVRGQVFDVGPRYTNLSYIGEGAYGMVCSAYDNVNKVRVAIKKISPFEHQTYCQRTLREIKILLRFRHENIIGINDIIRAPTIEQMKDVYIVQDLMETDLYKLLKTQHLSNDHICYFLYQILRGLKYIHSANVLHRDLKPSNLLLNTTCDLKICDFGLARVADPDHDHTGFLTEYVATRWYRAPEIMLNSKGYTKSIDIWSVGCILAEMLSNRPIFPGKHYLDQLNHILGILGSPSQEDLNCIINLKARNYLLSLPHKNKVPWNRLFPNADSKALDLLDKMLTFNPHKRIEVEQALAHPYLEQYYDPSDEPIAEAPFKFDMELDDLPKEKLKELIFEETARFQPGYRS
MKK2, sequence (P36507 whole entry, species assumed): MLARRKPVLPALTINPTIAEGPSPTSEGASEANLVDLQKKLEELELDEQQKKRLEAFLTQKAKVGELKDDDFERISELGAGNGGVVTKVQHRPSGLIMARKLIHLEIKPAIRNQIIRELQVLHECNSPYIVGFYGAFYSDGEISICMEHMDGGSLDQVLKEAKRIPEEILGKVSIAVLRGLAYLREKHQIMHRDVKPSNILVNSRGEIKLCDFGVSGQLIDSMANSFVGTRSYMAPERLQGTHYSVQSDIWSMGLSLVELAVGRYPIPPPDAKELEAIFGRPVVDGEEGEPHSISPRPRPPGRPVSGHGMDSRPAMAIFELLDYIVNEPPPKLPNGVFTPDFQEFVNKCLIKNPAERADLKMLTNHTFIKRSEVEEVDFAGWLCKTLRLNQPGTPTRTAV
MKK1, sequence (Q02750 whole entry, species assumed): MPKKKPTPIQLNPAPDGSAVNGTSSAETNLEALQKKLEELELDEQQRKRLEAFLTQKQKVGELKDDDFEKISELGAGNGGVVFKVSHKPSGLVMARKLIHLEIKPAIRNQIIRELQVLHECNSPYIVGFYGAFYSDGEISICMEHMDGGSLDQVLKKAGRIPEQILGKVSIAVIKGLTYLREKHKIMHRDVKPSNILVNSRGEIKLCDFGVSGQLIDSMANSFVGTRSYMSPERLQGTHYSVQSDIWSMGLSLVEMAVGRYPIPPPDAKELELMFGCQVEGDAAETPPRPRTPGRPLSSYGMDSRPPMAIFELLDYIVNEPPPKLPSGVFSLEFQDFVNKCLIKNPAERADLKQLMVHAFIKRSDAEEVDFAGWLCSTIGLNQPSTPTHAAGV
PKBa, sequence (P31749 whole entry): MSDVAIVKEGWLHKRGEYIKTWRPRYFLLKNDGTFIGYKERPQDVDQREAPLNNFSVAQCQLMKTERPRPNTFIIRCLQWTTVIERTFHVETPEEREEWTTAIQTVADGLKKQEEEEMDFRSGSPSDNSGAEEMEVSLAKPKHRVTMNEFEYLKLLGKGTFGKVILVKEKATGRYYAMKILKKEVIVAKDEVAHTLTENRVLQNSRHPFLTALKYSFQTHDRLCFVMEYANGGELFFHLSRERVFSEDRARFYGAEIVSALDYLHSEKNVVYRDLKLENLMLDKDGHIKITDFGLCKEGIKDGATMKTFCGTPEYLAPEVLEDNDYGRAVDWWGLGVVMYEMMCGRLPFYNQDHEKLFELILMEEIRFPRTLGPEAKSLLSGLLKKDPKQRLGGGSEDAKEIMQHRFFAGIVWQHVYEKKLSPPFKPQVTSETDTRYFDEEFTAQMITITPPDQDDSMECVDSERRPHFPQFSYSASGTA
ROCK 2, sequence (O75116 whole entry, species assumed): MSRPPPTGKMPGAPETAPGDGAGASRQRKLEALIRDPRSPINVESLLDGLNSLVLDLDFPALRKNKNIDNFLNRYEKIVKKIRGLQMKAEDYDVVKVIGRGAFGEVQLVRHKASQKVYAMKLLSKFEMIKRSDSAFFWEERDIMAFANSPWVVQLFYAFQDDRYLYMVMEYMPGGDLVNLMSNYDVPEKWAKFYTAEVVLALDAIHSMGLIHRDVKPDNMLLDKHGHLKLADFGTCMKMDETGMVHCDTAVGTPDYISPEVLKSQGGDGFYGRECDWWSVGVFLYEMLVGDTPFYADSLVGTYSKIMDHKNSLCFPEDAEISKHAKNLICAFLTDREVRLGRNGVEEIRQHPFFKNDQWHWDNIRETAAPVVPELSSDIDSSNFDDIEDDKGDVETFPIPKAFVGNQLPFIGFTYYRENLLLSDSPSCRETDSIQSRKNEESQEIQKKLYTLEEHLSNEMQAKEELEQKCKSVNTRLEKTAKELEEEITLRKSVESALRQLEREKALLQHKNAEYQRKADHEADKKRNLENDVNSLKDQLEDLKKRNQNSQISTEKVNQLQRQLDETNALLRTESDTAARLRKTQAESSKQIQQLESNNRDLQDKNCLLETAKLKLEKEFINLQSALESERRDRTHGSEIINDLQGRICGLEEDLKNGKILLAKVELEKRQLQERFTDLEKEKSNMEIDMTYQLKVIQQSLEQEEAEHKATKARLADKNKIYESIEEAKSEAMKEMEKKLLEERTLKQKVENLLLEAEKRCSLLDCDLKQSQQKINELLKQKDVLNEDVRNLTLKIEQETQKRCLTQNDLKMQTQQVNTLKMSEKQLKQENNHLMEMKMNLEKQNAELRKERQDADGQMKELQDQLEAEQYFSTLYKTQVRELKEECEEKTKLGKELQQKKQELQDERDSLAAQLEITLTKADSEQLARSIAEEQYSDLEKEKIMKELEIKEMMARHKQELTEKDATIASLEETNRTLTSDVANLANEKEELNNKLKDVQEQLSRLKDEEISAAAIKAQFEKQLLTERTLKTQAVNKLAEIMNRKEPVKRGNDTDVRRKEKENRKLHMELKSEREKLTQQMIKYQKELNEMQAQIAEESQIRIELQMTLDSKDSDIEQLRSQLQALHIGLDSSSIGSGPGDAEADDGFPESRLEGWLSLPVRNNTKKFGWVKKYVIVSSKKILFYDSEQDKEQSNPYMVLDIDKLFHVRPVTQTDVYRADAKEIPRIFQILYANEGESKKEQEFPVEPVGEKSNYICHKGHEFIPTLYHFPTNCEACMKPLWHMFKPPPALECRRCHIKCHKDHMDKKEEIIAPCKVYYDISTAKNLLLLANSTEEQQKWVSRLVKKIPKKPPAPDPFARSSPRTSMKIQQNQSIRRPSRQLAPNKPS
SRPK1, sequence (Q96SB4 whole entry, species assumed): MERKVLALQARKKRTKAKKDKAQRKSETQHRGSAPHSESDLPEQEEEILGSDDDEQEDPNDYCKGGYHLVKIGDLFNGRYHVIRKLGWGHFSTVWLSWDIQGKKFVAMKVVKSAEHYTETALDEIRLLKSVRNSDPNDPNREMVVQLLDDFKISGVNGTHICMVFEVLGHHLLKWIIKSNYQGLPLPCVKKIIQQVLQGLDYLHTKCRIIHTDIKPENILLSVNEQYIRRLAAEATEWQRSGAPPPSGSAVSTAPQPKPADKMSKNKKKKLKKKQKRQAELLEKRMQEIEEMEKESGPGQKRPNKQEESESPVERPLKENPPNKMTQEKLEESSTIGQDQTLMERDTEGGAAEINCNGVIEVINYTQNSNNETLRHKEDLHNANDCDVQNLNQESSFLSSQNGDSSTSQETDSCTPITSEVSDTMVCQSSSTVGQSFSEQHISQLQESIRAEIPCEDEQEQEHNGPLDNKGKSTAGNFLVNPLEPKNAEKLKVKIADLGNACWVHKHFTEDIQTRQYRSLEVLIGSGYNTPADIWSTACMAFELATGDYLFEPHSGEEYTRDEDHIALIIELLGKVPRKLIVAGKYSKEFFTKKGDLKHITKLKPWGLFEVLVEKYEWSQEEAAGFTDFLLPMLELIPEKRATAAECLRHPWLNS

SMILES	residual kinase activity, ERK2 (ERK2)	residual kinase activity, MKK2 (MKK2)	residual kinase activity, ROCK 2 (ROCK 2; [1])	residual kinase activity, MKK1 (MKK1; [1])	residual kinase activity, PKBa (PKBa)	residual kinase activity, PKA (PKA; [1])	residual kinase activity, RSK2 (RSK2)	residual kinase activity, MKK6 (MKK6)	residual kinase activity, PKCz (PKCz)	residual kinase activity, JNK2 (JNK2)	further results
CC(=O)Nc1ccccc1C(=O)Nc1nc2ccc(O)cc2s1 [Compound 08-39]	68	78	22	106	84	88	2	96	38	93	
COc1ccc2sc(NC(=O)c3ccc(NC(C)=O)cc3)nc2c1 [MS:LY-2-77]	105	95	96	95	89	102	81	111	107	99	
CC(=O)NC(C)C(=O)Nc1nc2ccc(C(F)(F)F)cc2s1 (centres unmarked) [Compound 03-80]	101	75	80	80	105	104	66	115	75	87	
CC(=O)Nc1cccc(C(=O)Nc2nc3cc(O)ccc3s2)c1 [MS:LY-2-89]	68	47	11	56	82	87	8	98	80	93	
COc1ccc2sc(NC(=O)c3cccc(NC(C)=O)c3)nc2c1 [MS:LY-2-85]	98	80	29	83	90	98	32	99	101	100	
CC(=O)Nc1ccc(C(=O)Nc2nc3cc(O)ccc3s2)cc1 [MS:LY-2-87]	81	73	38	69	86	93	28	107	83	105	
COC(=O)c1cccc(C(=O)Nc2nc3ccc(C(F)(F)F)cc3s2)c1 [Compound 03-105, Methyl 3-((6-(trifluoromethyl)benzo[d]thiazol-2-yl)carbamoyl)benzoate]											remaining activity at 100 µM (ROCK 2): 103%; remaining activity at 100 µM (TTK): 9%; remaining activity at 100 µM (EPH-A2): 100%; remaining activity at 100 µM (NEK6): 90%; remaining activity at 100 µM (HIPK2): 72%; remaining activity at 100 µM (CAMK1): 92%; remaining activity at 100 µM (MKK1): 86%; remaining activity at 100 µM (PKBa): 92%; remaining activity at 100 µM (JAK2): 101%; remaining activity at 100 µM (EF2K): 108%; remaining activity at 100 µM (SRPK1): 54%; remaining activity at 100 µM (PKA): 96%; remaining activity at 100 µM (Lck): 99%; remaining activity at 100 µM (Src): 165%
CC(=O)Nc1cccc(C(=O)Nc2nc3ccc(O)cc3s2)c1 [Compound 03-58]	104	86	10	52	92	90	51	103	84	99	
CC(=O)Nc1nc2ccc([N+](=O)[O-])cc2s1 [Compound 13-10]											remaining activity at 100 µM (ROCK 2; [1]): 96%; remaining activity at 100 µM (TTK; [1]): 55%; remaining activity at 100 µM (EPH-A2; [1]): 65%; remaining activity at 100 µM (NEK6; [1]): 92%; remaining activity at 100 µM (HIPK2; [1]): 8%; remaining activity at 100 µM (CAMK1; [1]): 84%; remaining activity at 100 µM (MKK1; [1]): 62%; remaining activity at 100 µM (PKBa): 101%; remaining activity at 100 µM (JAK2; [1]): 91%; remaining activity at 100 µM (EF2K; [1]): 95%; remaining activity at 100 µM (SRPK1; [1]): 62%; remaining activity at 100 µM (PKA; [1]): 99%; remaining activity at 100 µM (Lck; [1]): 79%; remaining activity at 100 µM (Src; [1]): 85%
